Assay results as given in PMC3064985 (Bioorganic & medicinal chemistry, 2010).

Tests used:
Poly d(A-T)n = test: Thermal melting; type: binding; details: for Increase in ΔTm on replacing one furan ring with thiophene: compared with bifuran 1c
[1] = system: cultured L6 rat myoblast cells; test: Cytotoxicity, Alamar Blue assay; type: cell-based; details: read-out: Cytotoxicity IC50
Plasmodium falciparum K1 = test: In vitro activity against P. falciparum; type: cell-based; details: read-out: P. falciparum IC50; strain K1; average of duplicate determination
[2] = system: T. b. rhodesiense STIB900; test: STIB900 acute mouse model of trypanosomiasis; type: in vivo; details: 5 mg/kg ip, 4 consecutive days

Compound	Survival (average days of survival) [2]	Increase in ΔTm on replacing one furan ring with thiophene (Poly d(A-T)n)	also measured
6-(5′-Amidino-2,2′-bifuran-5-yl)-nicotinamidine acetate [Compound 1h]	25.5 days		ΔTm, increase in thermal melting of Poly d(A-T)n (Poly d(A-T)n; ratio 0.3 mol compound per mole DNA, CAC 10 buffer pH 7.0): 6.0 °C; IC50 [1]: 26.9 µM; IC50 (Plasmodium falciparum K1): 0.0064 µM; Cures (mice that survive and are parasite free for 60 days) ([2]; groups of four mice): 0/4
Cl.N=C(N)c1ccc(-c2ccc(-c3ccc(C(=N)N)s3)o2)cc1 [Compound 1d, 5-[5-(4-Amidinophenyl)-furan-2-yl]-thiophene-2-carboxamidine hydrochloride]		approximately 5 °C	
Cl.N=C(N)c1ccc(-c2ccc(-c3ccc(C(=N)N)s3)s2)cc1 [Compound 1e, 5′-(4-Amidinophenyl)-2,2′-bithiophene-5-carboxamidine hydrochloride]	26.25 days		
Cl.N=C(N)c1ccc(-c2ccc(-c3ccc(C(=N)N)o3)s2)cc1 [Compound 1f, 5-[5-(4-Amidinophenyl)-thiophen-2-yl]-furan-2-carboxamidine hydrochloride]		approximately 5 °C	
